Measured values as given in patent US9708314B2, “Heterocyclic amide compound” (NISSAN CHEMICAL INDUSTRIES, LTD., priority 2013, dated 2017).

Experiments:
Type in all cases: in vivo
[1] = system: Echinochloa oryzacola Vasing.; experiment: Test Example 1: herbicidal activity, application before weed generation in submerged conditions; conditions: Seventeenth Table; for A: Echinochloa oryzicola Vasing. (herbicidal effect grade): Application herbicide amount 320 g/ha
In short: (§1)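 Pre-emergence application to water surface of submerged pots (4 cm depth, alluvial soil) on sowing day, with 2.5-leaf rice transplanted; emulsion diluted to g/ha rates. Grown in greenhouse at 25–30 °C; 0–5 herbicidal/crop-effect score after three weeks.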

Monochoria vaginalis = experiment: as above; conditions: Seventeenth Table; for C (Monochoria vaginalis) herbicidal ratio grade: application herbicide amount 320 g/ha; for C: Monochoria vaginalis (herbicidal effect grade): Application herbicide amount 320 g/ha
In short: as §1

Scirpus juncoides [2] = experiment: as above; conditions: Seventeenth Table; for B: Scirpus juncoides (herbicidal effect grade): Application herbicide amount 320 g/ha
In short: as §1

[3] = system: transplanted Oryza sativa; experiment: Test Example 1: effect on crop, application before weed generation in submerged conditions; conditions: Seventeenth Table; for a: transplanted Oryza sativa (effect on crop grade): Application herbicide amount 320 g/ha
In short: as §1

[4] = system: Echinochloa oryzacola Vasing.; experiment: Test Example 2: herbicidal activity, application during weed generation in submerged conditions; conditions: Eighteenth Table
In short: (§2)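 Mixed sowings in flooded alluvial soil (4 cm water), greenhouse 25-30 °C; emulsifiable concentrate diluted in water applied to the water surface at the 1-2 leaf stage, rate in g/ha. Effect scored three weeks later on a 0-5 scale (5 = ≥90% herbicidal ratio, 0 = ≤5%).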

Scirpus juncoides [5] = experiment: as above; conditions: Eighteenth Table
In short: as §2

[6] = system: Echinochloa crus-galli var. crus-galli; experiment: Test Example 3: herbicidal effect by application to foliage (Wagner pot, water depth 0.1-0.5 cm); conditions: Nineteenth Table, application to foliage
In short: (§3)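 Wagner pot foliar test: sow, grow 14 d (25–30 °C), spray diluted emulsion at set g/ha, score after 3 wk; 0 ≤5%, 5 ≥90% herbicidal ratio.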

Leptochloa chinensis = experiment: as above; conditions: Nineteenth Table, application to foliage
In short: as §3

Cyperus difformis = experiment: as above; conditions: Nineteenth Table; application to foliage; application herbicide amount 320 g/ha
In short: as §3

[7] = application herbicide amount 320 g/ha
[8] = application herbicide amount 260 g/ha

| Structure (SMILES) | A (Echinochloa oryzicola Vasing.) herbicidal ratio grade [1, 7] | C (Monochoria vaginalis) herbicidal ratio grade (Monochoria vaginalis) | B (Scirpus juncoides) herbicidal ratio grade (Scirpus juncoides [2]; [7]) | a (transplanted Oryza sativa) effect on crop grade [3, 7] | A (Echinochloa oryzicola Vasing.) herbicidal ratio grade [4, 7] | B (Scirpus juncoides) herbicidal ratio grade (Scirpus juncoides [5]; [7]) | H (herbicidal effect grade) [6, 7] | D (herbicidal effect grade) (Leptochloa chinensis; [7]) | A (Echinochloa oryzicola Vasing.) herbicidal ratio grade [1, 8] | B (Scirpus juncoides) herbicidal ratio grade (Scirpus juncoides [2]; [8]) | a (transplanted Oryza sativa) effect on crop grade [3, 8] | A (Echinochloa oryzicola Vasing.) herbicidal ratio grade [4, 8] | B (Scirpus juncoides) herbicidal ratio grade (Scirpus juncoides [5]; [8]) | H (herbicidal effect grade) [6, 8] | D (herbicidal effect grade) (Leptochloa chinensis; [8]) | A: Echinochloa oryzicola Vasing. (herbicidal effect grade) [1] | C: Monochoria vaginalis (herbicidal effect grade) (Monochoria vaginalis) | B: Scirpus juncoides (herbicidal effect grade) (Scirpus juncoides [2]) | a: transplanted Oryza sativa (effect on crop grade) [3] | E (herbicidal effect grade) (Cyperus difformis) |
| --- | --- | --- | --- | --- | --- | --- | --- | --- | --- | --- | --- | --- | --- | --- | --- | --- | --- | --- | --- | --- |
| Cn1nnnc1NC(=O)c1ccc(C(F)(F)F)n2c(CO)nnc12 [2-108] | 4 (Herbicidal ratio of 70% or more and less than 90%) | 2 (Herbicidal ratio of 20% or more and less than 40%) | 3 (Herbicidal ratio of 40% or more and less than 70%) | 0 (Herbicidal ratio of 5% or less (almost no effect)) | 0 (Herbicidal ratio of 5% or less (almost no effect)) | 1 (Herbicidal ratio of 5% or more and less than 20%) | 4 (Herbicidal ratio of 70% or more and less than 90%) | 5 (Herbicidal ratio of 90% or more (almost completely withered)) |  |  |  |  |  |  |  |  |  |  |  |  |
| Cn1nnnc1NC(=O)c1ccc(C(F)(F)F)n2c(C=O)nnc12 [2-109] |  |  |  |  |  |  |  |  | 2 (Herbicidal ratio of 20% or more and less than 40%) | 3 (Herbicidal ratio of 40% or more and less than 70%) | 0 (Herbicidal ratio of 5% or less (almost no effect)) | 1 (Herbicidal ratio of 5% or more and less than 20%) | 1 (Herbicidal ratio of 5% or more and less than 20%) | 3 (Herbicidal ratio of 40% or more and less than 70%) | 5 (Herbicidal ratio of 90% or more (almost completely withered)) |  |  |  |  |  |
| Cc1nnc(NC(=O)c2ccc(C(F)(F)F)n3nc(C(C)C)nc23)o1 [7-001] | 0 (Herbicidal ratio of 5% or less (almost no effect)) | 4 (Herbicidal ratio of 70% or more and less than 90%) | 2 (Herbicidal ratio of 20% or more and less than 40%) | 0 (Herbicidal ratio of 5% or less (almost no effect)) |  |  | 1 (Herbicidal ratio of 5% or more and less than 20%) | 2 (Herbicidal ratio of 20% or more and less than 40%) |  |  |  |  |  |  |  |  |  |  |  |  |
| COC(=O)Cn1nnnc1NC(=O)c1ccc(C(F)(F)F)n2c(C(C)C)nnc12 [2-046] |  |  |  |  |  |  | 2 (Herbicidal ratio of 20% or more and less than 40%) | 3 (Herbicidal ratio of 40% or more and less than 70%) |  |  |  |  |  |  |  | 4 (Herbicidal ratio of 70% or more and less than 90%) | 0 (Herbicidal ratio of 5% or less (almost no effect)) | 0 (Herbicidal ratio of 5% or less (almost no effect)) | 0 (Herbicidal ratio of 5% or less (almost no effect)) | 3 (Herbicidal ratio of 40% or more and less than 70%) |
| COc1ccc(N(C)c2nnc3c(C(=O)Nc4nnco4)ccc(C(F)(F)F)n23)cc1 [1-171] |  |  |  |  | 4 (Herbicidal ratio of 70% or more and less than 90%) |  | 4 (Herbicidal ratio of 70% or more and less than 90%) | 4 (Herbicidal ratio of 70% or more and less than 90%) |  |  |  |  |  |  |  | 5 (Herbicidal ratio of 90% or more (almost completely withered)) | 4 (Herbicidal ratio of 70% or more and less than 90%) | 4 (Herbicidal ratio of 70% or more and less than 90%) | 1 (Herbicidal ratio of 5% or more and less than 20%) |  |
